Measured values taken from patent US11844845B2, “Cell penetrating peptide, conjugate comprising same, and composition comprising conjugate” (GEMVAX & KAEL CO., LTD., priority 2012, dated 2023).

System: HeLa cell
Assay: Cell penetration of pep(CPP)-FITC conjugate in HeLa cell line, flow cytometry (FACS)
Assay type: cell-based, Homo sapiens
Details: HeLa cells, 20 uM FITC-fused peptide, 37° C. for an hour, control = FITC only
Method: Homo sapiens cervix adenocarcinoma cell line as HeLa cell lines were purchased from ATCC (American Type Cell Culture). The cells were cultured in MEM supplemented with 10% fetal bovine serum (Invitrogen, USA), Earle's salts, non-essential amino acids, sodium pyruvate and 100 μg/ml penicillin and 10 units/ml streptomycin and cultured at 37° C., 5% CO2 incubator.
Flow cytometry and Confocal microscope analysis were performed to compare the between degree of cellular uptake of the cells were treated with SEQ ID NO: 2 to SEQ ID NO: 178, pep (CPP) and control.
The cell line was divided in a 6-well plate and cultured in a medium containing 10% fetal bovine serum (Invitrogen, USA), 100 μg/ml penicillin, 100 units/ml streptomycin at 37° C. 5% CO2 incubator for 12 hours. After washing the cell line with PBS, starvation was induced in a Minimum Essential Medium for an hour. 20 uM of each carrier peptide was treated and cultured at 37° C. for an hour. After repeating the step of washing the cells with PBS for three times, Trypsin-EDTA was treated form 10 mins at 37° C. to separate the carrier peptide on the outside of the cell. cells were collected with refrigerated PBS and centrifugation was performed to repeat the step of washing the cells for three times. After then, the cells were suspended in 0.5 ml of PBS containing 4% Paraformaldehyde and fluorescence of the cells was analyzed using FACS Calibur (Becton Dickinson). The cellular uptake aspect of control and various peptides combined with FITC was compared and analyzed by MFI (Mean Fluorescence Intensity).
Analysis results shown in FIGS. 2 to 29 are given in detail in Table 7 below.

| Substance | cellular uptake, MFI (Mean Fluorescence Intensity) |
| --- | --- |
| LTS (listed as Homo sapiens) [Pep-RIA-158] | 9.91 ± 1.44 |
| ALLTSRLRFIP (listed as Homo sapiens) [Pep-RIA-139] | 34.19 ± 1.43 |
| LLTSRLRFIPK (listed as Homo sapiens) [Pep-RIA-95] | 25.79 ± 0.46 |
| RPALLTSRLRF (listed as Homo sapiens) [Pep-RIA-122] | 23.8 ± 1.54 |
| EARPALLTSRLRFIPKPDGLRPIVNMD (listed as Homo sapiens) [Pep-RIA-74] | 21.77 ± 2.01 |
| EARPALLTSRLRFIPKPDGLRPIVNMDY (listed as Homo sapiens) [Pep-RIA-75] | 26.21 ± 1.29 |
| VRQHREARPALLTSRLRFIPKPDGLRPI (listed as Homo sapiens) [Pep-RIA-59] | 22.69 ± 0.66 |
| LRELSEAEVRQHREARPALLTSRLRFIPK (listed as Homo sapiens) [Pep-RIA-13] | 15.37 ± 1.34 |
